# Data from publication PMC11371785 (Frontiers in Pharmacology, 2024).
# Marks after values point to notes of the source that are not given here.
# Columns and labels:
# [1] = system: bone marrow cells of mice; experiment: Micronucleus (MN) assay; settings: SEM
# Procedure: (§1) The negative control group (group a) was treated with 0.2 mL of the vehicle, while the positive control group (group g) was also treated with the 20 mg/kg dosage of cyclophosphamide. […] The blood samples were collected for haematological analysis, while the liver and kidney were also collected for histopathological analysis and fixed in 10% formalin.
# The animals used for the subacute toxicity test were also used for the MN assay because the treatment follows the same procedure, but the positive control, cyclophosphamide (group g) for MN, is a single-dose treatment that was given intraperitoneally. The MN assay was carried out as described by Jain and Pandey ([Jain and Pandey, 2019]), four animals were sacrificed from each group by cervical dislocation, and both femurs were removed. The epiphyses were removed from the femur, and the bone marrow was flushed with fetal bovine serum (FBS) into Eppendorf tubes (1.5 mL). After a light tap to ensure appropriate cell dispersion, it was centrifuged at 2,000 rpm for 5 minutes. The pellet was suspended in another 1 mL of FBS in the Eppendorf tube, thoroughly mixed using a micropipette, and centrifuged once more at the same rate after the supernatant was discarded. Once more, the supernatant was removed, and the pellet was mixed with 0.5 mL of FBS before a few drops of the viscous mixture were dropped on a clean, oil-free slide. This drop was spread on the slide and allowed to air dry.
# The slides were stained with 0.4% May-Grunewald stain for 3-4 min and were immediately transferred into another coupling jar containing May-Grunewald and distilled water (ratio 1:1) and allowed to stain for another 3-4 min. The slides were rinsed in distilled water and allowed to dry completely. Then, it was also stained in 5% Giemsa stain for 5 min, rinsed in distilled water, and allowed to dry completely. A minimum of 1,000 cells from each mouse were examined for micronuclei in polychromatic erythrocytes (MNPCE) using a light microscope at a magnification of 1,000X (oil immersion). The relative size of the erythrocytes and the difference in staining between PCEs (bluish-purple) and normochromatic erythrocytes (NCEs, pink-orange) are used to distinguish between them.
# [2] = Weight of experimental animals for toxicity test; settings: SEM
# Procedure: as §1
# [3] = system: liver and kidney of mice; experiment: Subacute toxicity test: liver and kidney histopathology; settings: 20 mg/kg, positive control (group g)
# Procedure: as §1
# The tissues were sliced into small pieces not more than 4 mm thick and then submerged in 10% formal saline for 24 h to fix, according to the protocols of [Avwioro et al., (2010)] for histopathology investigations. The tissue processing was carried out automatically using an automatic tissue processor (Leica TP 1020) by letting the tissues pass through several reagents: 10% formal saline was used in Stations 1 and 2, and alcohol in Stations 3 through 7 was used to dehydrate the tissues. The tissues were then moved into Stations 10 to 12, which contained wax for infiltration or impregnation, after passing through Stations 8 and 9, which contained xylene for the purpose of […]. Tissues stayed in each station for 1 hour during the 12-h duration of these operations. The tissues were then covered with molten paraffin wax, allowed to cool on ice, and then sectioned at a 4-micrometer interval. These parts were picked up using clean, labeled slides and floated in a water bath set at 55°C. […]
# [4] = system: Plasmodium berghei infected mice; experiment: Body weight, rectal temperature and packed cell volume in the suppressive test; assay type: in vivo, Mus musculus; settings: SEM; for Weight (g) initial / Temperature (°C) initial: before the experiment; for Weight (g) initial / Temperature (°C) initial / Weight (g) final / Temperature (°C) final: n = 5; for PCV (%) DAY 0: first day of infection; for Temperature (°C) initial / Temperature (°C) final: rectal; for Percentage change in PCV (%) DAY 0 / Percentage change in temperature (%) / Weight (g) final / PCV (%) DAY 4 / Percentage change in weight (%) / Temperature (°C) final / PCV (%) DAY 9 / Percentage change in PCV (%) DAY 9: 4 days; for Weight (g) final / Temperature (°C) final: after the experiment; for PCV (%) DAY 4: fifth day after infection; for Percentage change in weight (%): infected mice; for PCV (%) DAY 9 / Percentage change in PCV (%) DAY 9: tenth day after infection
# Procedure: (§2) Twenty-five (25) albino mice (weighing 22 ± 2 g) were randomly divided into five (5) groups of five animals per group (n = 5). Parasitized blood was obtained from infected donor mouse with rising parasitaemia (≥ 20%) by cardiac puncture and the infected blood was diluted with phosphate saline glucose buffer (PSG-mouse) to attain an estimate of 5 × 10^7 red blood cells per ml. Then, 0.2 mL of inoculum containing 1 × 10^7 infected RBCs was injected into the abdominal cavity of experimental animals by intraperitoneal (ip) injection.
# (§3) All drugs were administered orally for 4 days.
# (§4) The chemo-suppressive effect of HA in mice infected with P. berghei was assessed using Peter’s 4-day suppressive test. The mice were infected with the malaria parasite inoculum (1 × 10^7 P.berghei ANKA) on the first day of the experiment (D0) and treated as indicated in the section above on Animal Grouping and Drug Administration after 2 h post-infection. The treatment continues for another three consecutive days. Each mouse’s parasitaemia level was assessed 96 h after infection (D4). Animals in each group had their PCV, rectal temperature, and body weight measured both before and after the experiment.
# Blood samples were taken from each mouse’s tail using heparinized capillary tubes, sealed, and then put into a micro haematocrit centrifuge to calculate the packed cell volume of the blood. After being centrifuged for 5 min at 12,000 rpm, the blood samples’ PCV was calculated using the following formula: Packed Cell Volume=volume of erythrocyes in a given volume of blood/total volume of blood×100
# The body weight and rectal temperature of each mouse were also determined using a sensitive digital weighing balance and rectal thermometer, respectively.
# [5] = system: Plasmodium berghei ANKA; experiment: Peter's 4-day suppressive test; assay type: in vivo; settings: 4 days, D4; for Suppressive parasitemia (%): n = 5, ±SEM
# Procedure: as §2, §3, §4
# Parasitaemia was determined by counting the number of infected RBCs (minimum of four fields per slide) using a light microscope with an objective lens magnification power of 1,000x. Percentage parasitaemia and percentage chemo-suppression were calculated using the modified Peters and Robinson formula ([Nyandwaro et al., 2020]): % parasitemia=number of parasitized RBCs/total number of RBC count×100 % chemo−suppression=% parasitemia in negative control− % parasitemia in study group/% parasitemia in negative control×100
# [6] = system: Plasmodium berghei ANKA; experiment: Mean survival time of P. berghei-infected mice; assay type: in vivo; settings: 4 days, monitored 30 days, n = 5, ±SEM
# Procedure: as §2, §3
# The survival rate was monitored from the first day of the treatment to 30 days. Each mouse’s mortality was monitored and recorded in days. The mean survival time (MST) of mice in each group was determined, as shown below. MST=sum of survival time of all mice in a group in days/total number of mice in a group
# [7] = 20 mg/kg/bwt single dose intraperitoneally
structure (smiles),measurement,setting,value
"O=P1(N(CCCl)CCCl)NCCCO1 (stereo not shown) [CYP, Cyclophosphamide]",MnNCE (micronucleated normochromatic erythrocytes),[1]; [7],100.9 ± 11.99
same,MnPCE (micronucleated polychromatic erythrocytes),[1]; [7],225.9 ± 8.84
same,Others (other abnormalities),[1]; [7],119.2 ± 19.59
same,PCE: NCE (polychromatic erythrocytes/normochromatic erythrocytes ratio),[1]; [7],0.51 ± 0.04
same,Weight (g) final,"[2]; 20 mg/kg (positive control), n = 5",24.43 ± 0.25 g
same,Percentage change in weight (%),"[2]; 20 mg/kg (positive control), toxicity test",−0.50 ± 0.34%
same,Weight (g) initial,"[2]; 20 mg/kg group (positive control), toxicity test, n = 5",24.53 ± 0.27 g
same,Kidney histological presentation,[3],normal architecture
same,Liver histological presentation,[3],normal architecture
"CCCCCCCCCCCCCCCC(=O)O [HA, n-Hexadecanoic acid]",MnNCE (micronucleated normochromatic erythrocytes),"[1]; 2 mg/kg oral, 14 days",3.42 ± 0.30
same,MnPCE (micronucleated polychromatic erythrocytes),"[1]; 2 mg/kg oral, 14 days",6.25 ± 0.88
same,MnNCE (micronucleated normochromatic erythrocytes),"[1]; 5 mg/kg oral, 14 days",3.17 ± 0.74
same,MnPCE (micronucleated polychromatic erythrocytes),"[1]; 5 mg/kg oral, 14 days",9.08 ± 1.30
same,MnNCE (micronucleated normochromatic erythrocytes),"[1]; 10 mg/kg oral, 14 days",6.67 ± 2.25
same,MnPCE (micronucleated polychromatic erythrocytes),"[1]; 10 mg/kg oral, 14 days",11.58 ± 2.00
same,MnNCE (micronucleated normochromatic erythrocytes),"[1]; 50 mg/kg oral, 14 days",7.19 ± 0.98
same,MnPCE (micronucleated polychromatic erythrocytes),"[1]; 50 mg/kg oral, 14 days",18.86 ± 1.74
same,MnNCE (micronucleated normochromatic erythrocytes),"[1]; 100 mg/kg oral, 14 days",8.00 ± 0.84
same,MnPCE (micronucleated polychromatic erythrocytes),"[1]; 100 mg/kg oral, 14 days",23.11 ± 0.58
same,Weight (g) initial,[4]; 10 mg/kg group,22.88 ± 0.47 g
same,PCV (%) DAY 0,[4]; 10 mg/kg group,42.63 ± 1.25%
same,Temperature (°C) initial,[4]; 10 mg/kg group,32.26 ± 0.33 °C
same,Percentage change in PCV (%) DAY 0,[4]; 10 mg/kg oral,6.00 ± 13.99%
same,Percentage change in temperature (%),[4]; 10 mg/kg oral,−6.08 ± 1.60%
same,Weight (g) final,[4]; 10 mg/kg oral,19.24 ± 0.81 g
same,PCV (%) DAY 4,[4]; 10 mg/kg oral,43.75 ± 5.11%
same,Percentage change in weight (%),[4]; 10 mg/kg oral,−15.99 ± 2.63%
same,Temperature (°C) final,[4]; 10 mg/kg oral,30.28 ± 0.24 °C
same,PCV (%) DAY 9,[4]; 10 mg/kg oral,23.12 ± 0.46%
same,Percentage change in PCV (%) DAY 9,[4]; 10 mg/kg oral,−45.54 ± 3.26%
same,Weight (g) initial,[4]; 50 mg/kg group,24.48 ± 0.71 g
same,PCV (%) DAY 0,[4]; 50 mg/kg group,46.60 ± 2.88%
same,Temperature (°C) initial,[4]; 50 mg/kg group,32.20 ± 0.32 °C
same,Percentage change in PCV (%) DAY 0,[4]; 50 mg/kg oral,3.54 ± 3.53%
same,Percentage change in temperature (%),[4]; 50 mg/kg oral,−6.56 ± 1.17%
same,Weight (g) final,[4]; 50 mg/kg oral,22.94 ± 1.24 g
same,PCV (%) DAY 4,[4]; 50 mg/kg oral,48.20 ± 3.14%
same,Percentage change in weight (%),[4]; 50 mg/kg oral,−6.46 ± 2.75%
same,Temperature (°C) final,[4]; 50 mg/kg oral,30.08 ± 0.37 °C
same,PCV (%) DAY 9,[4]; 50 mg/kg oral,22.93 ± 4.57%
same,Percentage change in PCV (%) DAY 9,[4]; 50 mg/kg oral,−51.35 ± 8.51%
same,Weight (g) initial,[4]; 100 mg/kg group,22.19 ± 0.40 g
same,PCV (%) DAY 0,[4]; 100 mg/kg group,40.94 ± 2.51%
same,Temperature (°C) initial,[4]; 100 mg/kg group,32.20 ± 0.06 °C
same,Percentage change in PCV (%) DAY 0,[4]; 100 mg/kg oral,5.03 ± 2.78%
same,Percentage change in temperature (%),[4]; 100 mg/kg oral,−6.39 ± 1.59%
same,Weight (g) final,[4]; 100 mg/kg oral,19.99 ± 0.31 g
same,PCV (%) DAY 4,[4]; 100 mg/kg oral,43.00 ± 5.03%
same,Percentage change in weight (%),[4]; 100 mg/kg oral,−9.77 ± 2.56%
same,Temperature (°C) final,[4]; 100 mg/kg oral,30.14 ± 0.46 °C
same,PCV (%) DAY 9,[4]; 100 mg/kg oral,25.42 ± 12.08%
same,Percentage change in PCV (%) DAY 9,[4]; 100 mg/kg oral,−39.10 ± 10.67%
same,Percentage chemosuppression (%),[5]; 10 mg/kg oral,71.58%
same,Suppressive parasitemia (%),[5]; 10 mg/kg oral,1.89 ± 0.30^ab %
same,Percentage chemosuppression (%),[5]; 50 mg/kg oral,83.80%
same,Suppressive parasitemia (%),[5]; 50 mg/kg oral,1.08 ± 0.29 ^a %
same,Percentage chemosuppression (%),[5]; 100 mg/kg oral,89.74%
same,Suppressive parasitemia (%),[5]; 100 mg/kg oral,0.68 ± 0.18 ^a %
same,MST (days),[6]; 10 mg/kg oral,15.60 ± 2.62 ^d days
same,MST (days),[6]; 50 mg/kg oral,9.20 ± 1.16 ^d days
same,MST (days),[6]; 100 mg/kg oral,11.40 ± 1.6 ^d days
